The text below walks through data of US9434711B2 (Janssen Pharmaceutica, NV, priority 2007, dated 2016).

Like-named read-outs stand apart in the source and are kept apart here.

In this experiment the target is canine TRPM8 (Canis lupus familiaris, UniProt Q1A7N1). Briefly: In Vitro Canine TRPM8 Functional Assay (Ca2+ fluorescence, icilin activation). The class given is cell-based. To be noted: for IC50: read-out: IC50; for inhibition at 0.5 µM: compound at 0.5 μM, read-out: % Inh @ 0.5; for inhibition at 0.2 µM: read-out: % Inh @ 0.2. Summed up:
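Eight-point dose-response curves, each point averaging quadruplicate wells, gave EC50 or IC50. Canine TRPM8-expressing HEK293 cells, dye-loaded (Calcium 3), were pre-exposed 5 min to compound, then challenged with icilin at roughly EC80; intracellular Ca2+ read by FLIPR or FDSS fluorescence.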

Setting [1] is: HEK293 cells stably expressing canine TRPM8, icilin activation, eight-point dose-response.
The mark [2] stands for this setting: canine TRPM8, icilin activation.
Where [3] appears, read: HEK293 cells stably expressing canine TRPM8, icilin activation, average of two or more determinations.
[4] abbreviates: compound at 0.2 μM, canine TRPM8, icilin activation.

Sequence of canine TRPM8 (Q1A7N1 1-1104): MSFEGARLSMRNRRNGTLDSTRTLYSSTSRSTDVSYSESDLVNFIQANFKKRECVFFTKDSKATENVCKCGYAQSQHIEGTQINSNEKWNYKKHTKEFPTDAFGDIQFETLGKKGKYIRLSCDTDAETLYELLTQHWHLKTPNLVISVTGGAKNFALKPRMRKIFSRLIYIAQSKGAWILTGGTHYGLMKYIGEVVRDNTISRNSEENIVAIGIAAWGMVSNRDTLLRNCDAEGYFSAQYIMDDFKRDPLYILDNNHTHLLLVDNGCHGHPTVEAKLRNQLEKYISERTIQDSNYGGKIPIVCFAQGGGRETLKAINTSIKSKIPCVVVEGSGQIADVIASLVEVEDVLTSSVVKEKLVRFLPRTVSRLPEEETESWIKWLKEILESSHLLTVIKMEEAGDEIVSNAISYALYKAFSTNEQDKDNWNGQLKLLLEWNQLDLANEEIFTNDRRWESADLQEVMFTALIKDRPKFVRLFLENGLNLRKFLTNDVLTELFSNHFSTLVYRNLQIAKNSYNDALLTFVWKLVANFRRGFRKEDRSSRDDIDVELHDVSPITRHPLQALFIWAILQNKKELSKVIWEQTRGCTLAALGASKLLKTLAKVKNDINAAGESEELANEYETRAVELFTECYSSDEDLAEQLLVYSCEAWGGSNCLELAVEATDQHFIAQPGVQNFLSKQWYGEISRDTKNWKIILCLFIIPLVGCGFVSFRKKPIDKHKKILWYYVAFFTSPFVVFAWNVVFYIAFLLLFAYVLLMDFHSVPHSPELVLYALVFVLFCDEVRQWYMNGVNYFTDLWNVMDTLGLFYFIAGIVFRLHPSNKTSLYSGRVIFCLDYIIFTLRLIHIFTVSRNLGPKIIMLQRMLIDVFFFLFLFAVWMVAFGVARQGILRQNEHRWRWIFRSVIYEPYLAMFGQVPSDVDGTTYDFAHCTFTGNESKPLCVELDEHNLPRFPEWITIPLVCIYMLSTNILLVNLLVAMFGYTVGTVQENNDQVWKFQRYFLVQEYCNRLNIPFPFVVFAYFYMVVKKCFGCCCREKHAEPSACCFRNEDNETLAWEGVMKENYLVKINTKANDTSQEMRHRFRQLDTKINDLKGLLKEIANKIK

The term IC50 denotes the midpoint of a concentration-inhibition curve. Regarding `COc1ccc(Br)c(CN(c2sc3ccccc3c2Br)S(=O)(=O)c2ccccc2)c1` [Compound 163, N-(3-Bromo-benzo[b]thiophen-2-yl)-N-(2-bromo-5-methoxy-benzyl)-benzenesulfonamide], the 50% inhibitory concentration (IC50) under setting [1] was 63.9 nM. Moreover, the inhibition at 0.5 µM under setting [2] was found to be 92%. On to `C=C(C)c1c(N(Cc2cc(F)c(F)c(OC)c2F)S(=O)(=O)CC)sc2ccccc12` [Compound 803, N-(3-Isopropenyl-benzo[b]thiophen-2-yl)-N-(2,4,5-trifluoro-3-methoxy-benzyl)-ethanesulfonamide], for which the inhibition at 0.2 µM (0.2 μM compound, HEK293 cells stably expressing canine TRPM8, icilin activation) is 101%. Besides, the half-inhibitory concentration (IC50) under setting [3] is 30.8 nM.

As to `Nc1ccc(S(=O)(=O)N(Cc2ccc(F)c(C(F)(F)F)c2)c2sc3ccccc3c2Br)cc1` [Compound 650, 4-Amino-N-(3-bromo-benzo[b]thiophen-2-yl)-N-(4-fluoro-3-trifluoromethyl-benzyl)-benzenesulfonamide], under setting [1], the IC50 was found to be 4 nM. In addition, the inhibition at 0.2 µM under setting [4] was found to be 102%. Consider `Cc1c(N(Cc2cccc3cccnc23)S(=O)(=O)c2cccc3cccnc23)sc2ccccc12` [Compound 22, N-(3-Methyl-benzo[b]thiophen-2-yl)-N-(quinolin-8-ylmethyl)-quinoline-8-sulfonamide], for which the 50% inhibitory concentration (IC50) under setting [1] was 32 nM. The inhibition at 0.5 µM under setting [2] was 98%. For `Cc1c(N(Cc2ccc(F)c(C(F)(F)F)c2)S(=O)(=O)CC(=O)O)sc2ccccc12` [Compound 792, N-(4-Fluoro-3-trifluoromethyl-benzyl)-N-(3-methyl-benzo[b]thiophen-2-yl)-carboxy-methanesulfonamide], the inhibition at 0.2 µM under setting [4] was 23%. `COc1cc(CN(c2sc3ccccc3c2Br)S(=O)(=O)c2ccccc2)ccc1F` [Compound 176, N-(3-Bromo-benzo[b]thiophen-2-yl)-N-(4-fluoro-3-methoxy-benzyl)-benzenesulfonamide]: under setting [1], the IC50 was determined as 2.8 nM. For the same compound, the inhibition at 0.5 µM under setting [2] turned out to be 97%. `COC(=O)c1ccc(S(=O)(=O)N(Cc2ccc(F)c(C(F)(F)F)c2)c2sc3ccccc3c2C(C)(C)O)cc1` [Compound 415, N-(4-Fluoro-3-trifluoromethylbenzyl)-N-(3-(1-hydroxy-1-methyl-ethyl)-benzo[b]thiophen-2-yl)-4-carbomethoxy-benzenesulfonamide]: the 50% inhibitory concentration (IC50) under setting [1] stood at 5 nM. For the same compound, the inhibition at 0.2 µM under setting [4] is 92%.

On to `O=S(=O)(c1ccccc1)N(CC1CC1)c1sc2ccccc2c1Br` [Compound 255, N-(3-Bromo-benzo[b]thiophen-2-yl)-N-(cyclopropylmethyl)-benzenesulfonamide], for which the half-inhibitory concentration (IC50) under setting [1] was found to be 86 nM. Moreover, the inhibition at 0.2 µM under setting [4] worked out at 89%. For `O=c1[nH]c(-c2ccc(S(=O)(=O)N(CCC3CC3)c3sc4ccccc4c3Br)cc2)ns1` [Compound 706, N-(3-Bromo-benzo[b]thiophen-2-yl)-N-(cyclopropyl-ethyl)-4-(5-oxo-4,5-dihydro-[1,2,4]thiadiazol-3-yl)-benzenesulfonamide], in that order: 14 nM and 102%.

Consider `Cc1c(N(CCC2CC2)S(=O)(=O)c2cnccc2-c2nnn[nH]2)sc2ccccc12` [Compound 804, N-(3-Methyl-benzo[b]thiophen-2-yl)-N-(cyclopropyl-ethyl)-4-(1H-tetrazol-5-yl)-pyridin-3-ylsulfonamide], for which the 50% inhibitory concentration (IC50) under setting [3] is 11.1 nM. For `Cc1c(N(Cc2ccc(F)c(C(F)(F)F)c2)S(=O)(=O)CC(F)(F)F)sc2ccccc12` [Compound 669, N-(4-Fluoro-3-trifluoromethyl-benzyl)-N-(3-methyl-benzo[b]thiophen-2-yl)-2,2,2-trifluoro-ethanesulfonamide], the IC50 under setting [1] was found to be 51.2 nM. Also, under setting [4], the inhibition at 0.2 µM amounted to 96.4%. For `Cc1c(N(Cc2ccc(OC(F)(F)F)cc2)S(=O)(=O)c2ccc(N3CCOCC3)nc2)sc2ccccc12` [Compound 790], in that order: 22 nM and 101%.

`CC(=O)c1ccc(S(=O)(=O)N(CCCC(F)(F)F)c2sc3ccccc3c2C)cc1` [Compound 351, N-(3-Methyl-benzo[b]thiophen-2-yl)-N-(4,4,4-trifluoro-butyl)-4-acetyl-benzenesulfonamide]: the IC50 under setting [1] is 21.2 nM. Under setting [4], the inhibition at 0.2 µM was found to be 97%. On to `Cc1cccc(CN(c2sc3ccccc3c2Br)S(=O)(=O)c2ccccc2)c1` [Compound 179, N-(3-Bromo-benzo[b]thiophen-2-yl)-N-(3-methyl-benzyl)-benzenesulfonamide], for which, under setting [1], the IC50 came to 3.6 nM. Besides, under setting [2], the inhibition at 0.5 µM stood at 98%. Regarding `CNS(=O)(=O)N(Cc1ccc(F)c(C(F)(F)F)c1)c1sc2ccccc2c1Cl` [Compound 309, N-(3-Chloro-benzo[b]thiophen-2-yl)-N-(4-fluoro-3-trifluoromethyl-benzyl)-N′-methyl-sulfamide], the half-inhibitory concentration (IC50) under setting [1] is 55 nM. Also, under setting [4], the inhibition at 0.2 µM came out at 93%.

As to `CCCS(=O)(=O)N(Cc1ccc(F)c(F)c1)c1cc2ccccc2s1` [Compound 36, N-(Benzo[b]thiophen-2-yl)-N-(3,4-difluoro-benzyl)-propane-1-sulfonamide], under setting [1], the IC50 was found to be 77.1 nM. In addition, under setting [2], the inhibition at 0.5 µM stood at 98%.

Take `Cc1c(N(Cc2ccc(F)c(C(F)(F)F)c2)S(=O)(=O)CCCCO)sc2ccccc12` [Compound 758, N-(4-Fluoro-3-trifluoromethyl-benzyl)-N-(3-methyl-benzo[b]thiophen-2-yl)-4-hydroxy-butanesulfonamide]: under setting [1], the half-maximal inhibitory concentration (IC50) came out at 5.1 nM. Moreover, the inhibition at 0.2 µM under setting [4] turned out to be 101%. For `O=C(O)c1ccc(S(=O)(=O)N(CCC2CC2)c2cc3ccccc3s2)c(F)c1` [Compound 638, N-(3-Benzo[b]thiophen-2-yl)-N-(2-cyclopropyl-ethyl)-2-fluoro-4-carboxy-benzenesulfonamide], the IC50 under setting [1] was found to be 60 nM. In addition, the “% Inh @ 0.2 (μM)” value under setting [4] is 100%. With `O=S(=O)(c1cccnc1)N(Cc1ccc(F)c(F)c1)c1cc2ccccc2s1` [Compound 33, N-(Benzo[b]thiophen-2-yl)-N-(3,4-difluoro-benzyl)-pyridine-3-sulfonamide], the IC50 under setting [1] came out at 57.4 nM. Also, under setting [2], the inhibition at 0.5 µM worked out at 100%. Regarding `CCS(=O)(=O)N(CCC(F)(F)F)c1sc2ccccc2c1C` [Compound 106, N-(3-Methyl-benzo[b]thiophen-2-yl)-N-(3,3,3-trifluoro-propyl)-ethanesulfonamide], the IC50 under setting [1] was found to be 19 nM. Besides, the inhibition at 0.2 µM under setting [4] was found to be 93%.

For `CSCCN(c1sc2ccccc2c1Br)S(=O)(=O)c1ccccc1` [Compound 260, N-(3-Bromo-benzo[b]thiophen-2-yl)-N-(2-methylsulfanyl-ethyl)-benzenesulfonamide], the concentration for half-maximal inhibition (IC50) under setting [1] amounted to 50 nM. Besides, the inhibition at 0.2 µM under setting [4] was found to be 86%. Regarding `CCCCN(c1sc2ccccc2c1C)S(=O)(=O)c1ccc(C2=NOS(=O)N2)cc1` (stereo not drawn) [Compound 540, N-(3-Methyl-benzo[b]thiophen-2-yl)-N-(butyl)-4-(3H-[1,2,3,5]oxathiadiazole-2-oxide)-benzenesulfonamide], under setting [1], the IC50 came out at 12.2 nM. The “% Inh @ 0.2 (μM)” value under setting [4] is given as 104.6%. As to `O=S(=O)(c1ccc(-c2nnn[nH]2)cc1)N(CCCCC(F)(F)F)c1sc2ccccc2c1Br` [Compound 579, N-(3-Bromo-benzo[b]thiophen-2-yl)-N-(5,5,5-trifluoro-pentyl)-4-(1H-tetrazol-5-yl)-benzenesulfonamide], the inhibition at 0.2 µM under setting [4] was 102%. For `Cc1c(N(Cc2ccc(OC(F)(F)F)cc2)S(=O)(=O)c2ccc(C(=O)O)c(F)c2)sc2ccccc12` [Compound 774, N-(3-Methyl-benzo[b]thiophen-2-yl)-N-(4-trifluoromethoxy-benzyl)-3-fluoro-4-carboxy-benzenesulfonamide], the IC50 under setting [1] stood at 1.3 nM. Besides, under setting [4], the inhibition at 0.2 µM was 95%. For `O=S(=O)(c1cccc(O)c1)N(Cc1ccc(F)c(C(F)(F)F)c1)c1sc2ccccc2c1Cl` [Compound 288, N-(3-Chloro-benzo[b]thiophen-2-yl)-N-(4-fluoro-3-trifluoromethyl-benzyl)-3-hydroxy-benzenesulfonamide], in that order: 20 nM and 90%. Take `Cc1c(N(CCC2CC2)S(=O)(=O)c2cccc(C#N)c2)sc2ccccc12` [Compound 549, N-(2-Cyclopropyl-ethyl)-N-(3-methyl-benzo[b]thiophen-2-yl)-3-cyano-benzenesulfonamide]: the half-maximal inhibitory concentration (IC50) under setting [1] stood at 15.9 nM. Besides, the inhibition at 0.2 µM under setting [4] was determined as 104%. With `CCS(=O)(=O)N(Cc1ccc(F)c(C(F)(F)F)c1)c1sc2ccccc2c1C#N` [Compound 198, N-(3-Cyano-benzo[b]thiophen-2-yl)-N-(4-fluoro-3-trifluoromethyl-benzyl)-ethanesulfonamide], the IC50 under setting [1] amounted to 10 nM. The inhibition at 0.2 µM under setting [4] came out at 95%. As to `CC(C)(O)c1c(N(CCCCC(F)(F)F)S(=O)(=O)c2ccc(Br)cc2)sc2ccccc12` [Compound 656, 4-Bromo-N-(3-(1-hydroxy-1-methyl-ethyl)-benzo[b]thiophen-2-yl)-N-(5,5,5-trifluoro-pentyl)-benzenesulfonamide], under setting [1], the half-maximal inhibitory concentration (IC50) came out at 53.7 nM. Further, under setting [4], the inhibition at 0.2 µM came out at 98%.

As to `CC(O)c1c(N(Cc2ccc(F)c(F)c2)S(C)(=O)=O)sc2ccccc12` (stereo not drawn) [Compound 225, N-(3,4-Difluoro-benzyl)-N-[3-(1-hydroxy-ethyl)-benzo[b]thiophen-2-yl]-methanesulfonamide], the IC50 under setting [1] is 4 nM. Further, under setting [4], the inhibition at 0.2 µM amounted to 98%. For `Cc1c(N(Cc2ccc(F)c(C(F)(F)F)c2)S(=O)(=O)c2ccc(C(=O)O)cc2F)sc2ccccc12` [Compound 592, N-(3-Methyl-benzo[b]thiophen-2-yl)-N-(4-fluoro-3-trifluoromethyl-benzyl)-2-fluoro-4-carboxy-benzenesulfonamide], in that order: 1.8 nM and 101%.
